According to US20120053208A1 (THE OHIO STATE UNIVERSITY RESEARCH FOUNDATION, priority 2009, published 2012):

Assays:
[1] = test system: STAT3 DNA binding activity; test: STAT3 DNA binding activity (STAT3 Transcription Factor Kit); assay type: cell-based, human; conditions: MDA-MB-231 cells; 10 μM, 24 h
Experimental: Cells were treated with the compounds or DMSO (control) for 24 h. The cell extract were analyzed for STAT3 binding activity using STAT3 Transcription Factor Kit.
(§1) Cells were treated with FLLL31 (10 μM) or DSMO (control) for 24 h. The cell extracts were analyzed for STAT3 DNA binding activity using STAT3 and STAT1 Transcription Factor Kits.

JAK2 kinase = JAK2 kinase (Homo sapiens, UniProt O60674); test: JAK2 kinase assay (HTScan JAK2 kinase assay kit); conditions: at 10 μM
JAK2 kinase, sequence (O60674 whole entry): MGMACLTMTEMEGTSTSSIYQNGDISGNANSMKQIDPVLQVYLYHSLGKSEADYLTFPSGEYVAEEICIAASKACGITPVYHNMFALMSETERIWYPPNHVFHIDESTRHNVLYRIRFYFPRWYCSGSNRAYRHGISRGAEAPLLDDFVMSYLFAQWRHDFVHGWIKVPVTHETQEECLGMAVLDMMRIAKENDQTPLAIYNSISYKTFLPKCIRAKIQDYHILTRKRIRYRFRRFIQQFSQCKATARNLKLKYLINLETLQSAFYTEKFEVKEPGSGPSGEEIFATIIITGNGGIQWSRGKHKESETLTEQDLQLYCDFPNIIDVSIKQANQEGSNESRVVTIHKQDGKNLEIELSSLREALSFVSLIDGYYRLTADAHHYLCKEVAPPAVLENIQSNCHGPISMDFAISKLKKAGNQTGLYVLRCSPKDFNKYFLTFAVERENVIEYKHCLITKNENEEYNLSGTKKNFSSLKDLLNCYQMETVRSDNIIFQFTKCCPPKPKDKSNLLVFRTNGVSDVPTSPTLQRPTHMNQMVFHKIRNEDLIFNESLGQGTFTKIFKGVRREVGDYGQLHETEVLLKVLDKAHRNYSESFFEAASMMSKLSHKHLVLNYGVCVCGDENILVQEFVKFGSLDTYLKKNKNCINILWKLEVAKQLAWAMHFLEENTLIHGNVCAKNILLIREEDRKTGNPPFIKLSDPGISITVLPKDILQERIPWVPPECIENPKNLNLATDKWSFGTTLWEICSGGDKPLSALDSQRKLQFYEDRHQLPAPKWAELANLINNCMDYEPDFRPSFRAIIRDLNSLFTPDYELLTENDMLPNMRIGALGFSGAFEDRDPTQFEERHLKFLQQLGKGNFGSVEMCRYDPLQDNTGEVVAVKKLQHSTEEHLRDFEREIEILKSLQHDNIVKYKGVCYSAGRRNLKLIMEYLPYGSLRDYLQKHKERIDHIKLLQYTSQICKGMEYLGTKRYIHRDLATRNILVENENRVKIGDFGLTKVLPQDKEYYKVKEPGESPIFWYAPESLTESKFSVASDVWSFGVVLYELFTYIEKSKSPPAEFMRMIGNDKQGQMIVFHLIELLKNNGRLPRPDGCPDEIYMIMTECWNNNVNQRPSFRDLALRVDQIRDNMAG
Experimental: JAK2 kinase assay was performed using a HTScan JAK2 kinase assay kit.

STAT3 phosphorylation = STAT3 phosphorylation by immunoblot in cancer cells with persistently activated STAT3; assay type: cell-based, human; conditions: 24 h
Description: (§2) The cell extract were processed for immunoblotting using specific antibodies. GAPDH was used as loading control.
(§3) The cell extracts were processed for immunoblotting using specific antibodies. GAPDH was used as loading control.
(§4) GAPDH was used as loading control.
as §3

[2] = test system: ERK1/2, PKC-δ, mTOR, p70S6K, and AKT phosphorylation; test: Phosphorylation of other kinases by immunoblot in breast cancer cells; assay type: cell-based, human; conditions: MDA-MB-231 and MDA-MB-468 cells, 24 h
Description: as §2, §3

[3] = test system: cells with persistent expression of p-STAT3; test: Apoptosis (cleaved caspase-3 immunoblot) in cancer cells; assay type: cell-based, human; conditions: 24 h
Description: as §2, §3, §4, §3, §3

[4] = test system: normal human pancreatic duct epithelial cells, normal human lung fibroblasts, normal human mammary epithelial cells; test: Apoptosis (cleaved caspase-3 immunoblot) in normal human cells; conditions: HPDE, HMEC and normal human lung fibroblasts; 24 h
Description: as §3

[5] = test system: downstream targets of STAT3; test: Expression of downstream targets of STAT3 by immunoblot; assay type: cell-based, human; conditions: both breast cancer cell lines (MDA-MB-231, MDA-MB-468)
Description: as §2, §3, §4, §3

[6] = test system: STAT1 DNA binding activity; test: STAT1 DNA binding activity (STAT1 Transcription Factor Kit); assay type: cell-based, human; conditions: MDA-MB-231 cells; 10 μM, 24 h
Experimental: as §1

[7] = test system: STAT3 dependent luciferase activity; test: STAT3-dependent transcriptional luciferase activity (pLucTKS3); assay type: cell-based, human; conditions: MDA-MB-231 cells stably transfected with pLucTKS3; 1-10 μmol/L, 24 hours
Experimental: Cells were incubated with the compounds for 24 h and were then harvested for luciferase activity analysis.
Expression of luciferase is thus contingent upon the phosphorylation and activation of STAT3.

[8] = test system: eight cancer cell lines with elevated levels of STAT3 phosphorylation; test: Anti-proliferative activity in a panel of eight cancer cell lines; assay type: cell-based, human

JAK2 inhibition (JAK2 kinase)	Structure (SMILES)	inhibition of STAT3 DNA binding activity [1]	inhibition of STAT3 phosphorylation (STAT3 phosphorylation; MDA-MB-231 breast cancer cells, 2.5 and 5 μM)	inhibition of STAT3 phosphorylation (STAT3 phosphorylation; MDA-MB-468 breast cancer cells, 2.5, 5 and 10 μM)	effects on ERK1/2, PKC-δ, mTOR, p70S6K, and AKT phosphorylation [2]	induction of apoptosis (cleavages of caspase-3) ([3]; MDA-MB-231 and MDA-MB-468 breast cancer cells)	induction of apoptosis (cleaved caspase-3) ([3]; PANC-1, BXPC-3 and SK-BR-3 cells, 5 or 10 μM)	induction of apoptosis in normal human cells [4]	down-regulation of cyclin D1 [5]	potency of STAT3 DNA binding inhibition relative to curcumin [1]	selectivity: STAT3 versus STAT1 DNA binding activity [6]	inhibition of STAT3 dependent luciferase activity [7]	IC50, anti-proliferative activity ([8]; SUM-159, ZR-75-1, BXPC-3, HPAC, PANC-1, SW1990, U373, U266)	anti-proliferative potency relative to WP1066, Stattic, S31-201, SD1029 and AG490 ([8]; panel of eight cancer cell lines)	inhibition of STAT3 phosphorylation (STAT3 phosphorylation; U373 human glioblastoma cells, 5 μM)	induction of apoptosis ([3]; U373 cells, 5 μM)
did not show any JAK2 inhibition	COc1cc(C=CC(=O)CC(=O)C=Cc2ccc(O)c(OC)c2)ccc1O [curcumin, 1,7-bis(4-hydroxy-3-methoxyphenyl)-1,6-heptadien-3,5-dione, reference compound]	inhibit STAT3 DNA binding activity	–	–	–	–	–	–	–	–	–	–	–	–	–	–
–	COc1ccc(/C=C/C(=O)C(C)(C)C(=O)/C=C/c2ccc(OC)c(OC)c2)cc1OC [FLLL31]	statistically significant inhibition	inhibited STAT3 phosphorylation	inhibited STAT3 phosphorylation	little effects	induction of apoptosis	induce apoptosis	no apoptosis induction	down-regulation of cyclin D1	significantly more potent than curcumin	inhibit STAT3 but not STAT1 DNA binding activity	dose-dependent inhibition	submicromolar	more potent than the other inhibitors	–	–
–	C[C@H](NC(=O)/C(C#N)=C/c1cccc(Br)n1)c1ccccc1 [WP1066, reference compound]	–	–	–	–	–	–	–	–	–	–	–	–	–	inhibit STAT3 phosphorylation	induce apoptosis
